The test system of one data set is WT mice. Description: Voluntary wheel activity and EDL specific force in WT (C57BL/6) mice. To be noted: 50 mg/kg/d. The data set is classed as in vivo, mouse. As to the method:
Voluntary activity on wheel, body weight, and average water consumption were measured in the first 3 weeks. Specific muscle force was measured after 4 weeks of treatment, at the end of the study.
(§1) Distance traveled (Km/day) over a 24 hr period was analyzed as an index of improved functional activity (see, DMD_M.2.1.002 SOP at http://www.treat-nmd.eu/). At the conclusion of the study, Extensor digitorum longus (EDL) muscle was isolated for muscle force analysis as further described hereinbelow. Blood was collected from each mouse by retro-orbital bleeds at the end of the study (after end of dark cycle—about 7 AM) to assess drug plasma concentrations. Experiments were blinded.
At the end of the study, EDL muscle was dissected from hind limbs for isometric force analysis using the 407A Muscle Test System from Aurora Scientific (Aurora, Ontario, Canada). […] Force-frequency relationships were determined by triggering contraction using incremental stimulation frequencies (5-250 Hz for 200 ms at suprathreshold voltage). […] At the end of the force measurement, the length (Lo) of the EDL muscle while sutured in the Aurora system was measured excluding the tendons. […] The cross-sectional area (mm^2) of the EDL muscle was calculated by dividing the EDL muscle weight by the EDL muscle length and the mammalian muscle density constant of […] (Yamada, T., et al. Arthritis and rheumatism 60:3280-3289). […]

The nature of data set [1]: Morning blood exposure (drug plasma concentrations) in mdx and WT mice. The data set is classed as in vivo. As to conditions: mouse, oral, read-out: Morning blood exposure (average±SEM). As to the method: as §1
In the next data set the test system is human hepatocytes. In words: Metabolic stability in human hepatocytes. The data set is classed as in vitro ADME. As to the method:
Compound solubilization: Stock solutions were made in DMSO, and working solutions in William medium containing 1/10 rat plasma or 1/4 human plasma.
Metabolic stability determination: Compounds were incubated at 10^−7 M with isolated hepatocytes (6E+5 cells/ml for rat hepatocytes and 4E+5 cells/ml for human hepatocytes) at 37° C. in plasma from the same species diluted in Wiliams medium (1/10 dilution for rat and 1/4 dilution for human). Sampling times were performed at 0, 10, 20, 30, 60 and 120 min and enzymatic reaction stopped with methanol (v/v). Proteins were precipitated by centrifugation and the supernatant was analyzed by LC/MS/MS. Clint expressed as ml/min/g protein were calculated as for hepatic microsomes using a ratio of 0.134 mg protein/ml for 4E+5 cells/ml for human and 0.201 mg protein/ml for 6E+5 cells/ml for rat. The presence of the reference drug and the potential metabolite was checked by LC/MS/MS during the assay in each sample.

Data set [2] is described as follows: Metabolic stability in mouse microsomes (% remaining). The format is in vitro ADME. As to the method:
0.1M Tris HCl buffer at pH 7.4 containing 5 mM EDTA.
To a 50 mL falcon tube containing 2.79 mL of dilution buffer were added 0.429 mL of NADPH-regenerating soln. A and 0.079 mL of NADPH-regenerating soln. B […]
[…] A 50 mL falcon tube containing 3.32 mL of dilution buffer was prewarmed at 37° C. for 15 min. (at least 10 min.) 0.178 mL of microsome (24.6 mg/mL) were added to the prewarmed dilution buffer. The protein concentration of this microsome preparation was 1.25 mg/mL.
Sample (Test Compound)—Original and Intermediate Stock Solutions:
100 μM intermediate solution of the test compound from the original stock solution were prepared using the dilution buffer. A 5 μM solution was prepared by diluting the 100 μM intermediate solution using dilution buffer.
(The experiments were conducted in 1.5 mL eppendorf micro centrifuge tubes) 0 minutes incubation. Procedure: a. Add 100 μL of prewarmed microsomes b. Add 50 μL of 5 μM solution of the test compound. c. Add 500 μL of cold stop solution (ice cold Methanol) d. Add 100 μL of NADPH cofactor solution to the eppendorf. a. Vortex mix the eppendorf. […]
b. Add 100 μL of NADPH cofactor solution to the eppendorf. c. Add 50 μL of 5 μM solution of the test compound. d. Add 100 μL of prewarmed microsomes e. Incubate the eppendorf at 37° C. 300 rpm for ‘t’ min. on a thermomixer. f. Remove the eppendorf from thermomixer g. Add 500 μL of cold stop solution (ice cold Methanol) h. Vortex mix the eppendorf.
Both the ‘0’ and ‘t’ minutes incubated samples were centrifuged at 15, 000 rcf at 4° C. for 15 min. 500 μL of the supernatant solution was removed and subject it to LC/MS analysis (SIM—Selected Ion Monitoring) […]
Results are expressed as % test compound remaining=(MS Area response of T min sample/MS Area response of ‘0’ min sample)*100. The MS area used is an average of duplicate injections.
Time points=0, 15, 30 and 60 min. for each test compound
2 μM Imipramine—5 min. and 2 μM Imipramine—15 min. incubation was used as a positive control for the rat and mouse liver microsome stability experiments.

Read-outs that look alike come from different tables or passages of the source.

For `COc1ccc2c(c1)CN(Cc1ccc(C(=O)O)cc1)CCS2` [Compound 1, 4-((7-Methoxy-2,3-dihydrobenzo[f][1,4]thiazepin-4(5H)-yl)methyl)benzoic acid], the “travel distance on voluntary wheel” value in the data set on WT mice is “No effect”. The “specific muscle force (EDL)” value with WT mice (4 weeks) is reported as “No effect”. The concentration at 4 weeks is 72.8 ± 7 µM in data set [1] (C57BL/6 (WT), 50 mg/kg/d-dosed WT mice); 3.3 ± 0.4 µM in data set [1] (C57BL/10ScSn-DMD^mdx/J (mdx), 5 mg/kg/d-dosed mdx mice); 10.7 ± 0.9 µM in data set [1] (C57BL/10ScSn-DMD^mdx/J (mdx), 10 mg/kg/d-dosed mdx mice); 52.8 ± 1.7 µM in data set [1] (C57BL/10ScSn-DMD^mdx/J (mdx), 50 mg/kg/d-dosed mdx mice). The same compound had an MF human % in the data set on human hepatocytes of 100%. Also, in the data set on human hepatocytes (4.00E+05 cells/ml, 10^-7 M), the Clint was 0 ml/min/gprot. Further, the “% remaining” value in data set [2] (15 min) came to 99%; in data set [2] (30 min), 98%; in data set [2] (1 h), 82%.
